Test results as given in patent US20220119411A1, “IMMUNOMODULATORS, COMPOSITIONS AND METHODS THEREOF” (BETTA PHARMACEUTICALS CO., LTD, priority 2018, published 2022).

Target: T1, PD-1/PD-L1 protein/protein interaction (Homo sapiens, UniProt Q9NZQ7)
T1 construct: Recombinant human PD-L1 protein (19-238) with a His-tag at the C-terminus; purchased AcroBiosystems PD1-H5229 (PD-L1); PD1-H5257 (PD-1)
Test: PD-1/PD-L1 homogenous time-resolved fluorescence (HTRF) binding assay
Details: recombinant human PD-L1 (19-238)-His 10 nM, human PD-1 (25-167)-Fc 3 nM, 25° C., PBS pH 7.4
Protocol: Resolved Fluorescence (HTRF) Binding Assay
The assays were conducted in a standard black 384-well polystyrene plate with a final volume of 20 μL. Inhibitors were first serially diluted in DMSO and then added to the plate wells before the addition of other reaction components. The final concentration of DMSO in the assay was 1%. The assays were carried out at 25° C. in the PBS buffer (pH 7.4) with 0.05% Tween-20 and 0.1% BSA. Recombinant human PD-L1 protein (19-238) with a His-tag at the C-terminus was purchased from AcroBiosy stems (PD1-H5229). Recombinant human PD-1 protein (25-167) with Fc tag at the C-terminus was also purchased from AcroBiosystems (PD1-H5257). PD-L1 and PD-1 proteins were diluted in the assay buffer and 10 μL was added to the plate well. Plates were centrifuged and proteins were preincubated with inhibitors for 40 min. The incubation was followed by the addition of 10 μL of HTRF detection buffer supplemented with Europium cryptate-labeled anti-human IgG (PerkinElmer-AD0212) specific for Fc and anti-His antibody conjugated to SureLight®—Allophycocyanin (APC, PerkinElmer-AD0059H). After centrifugation, the plate was incubated at 25° C. for 60 min. Before reading on a PHERAstar FS plate reader (665 nm/620 nm ratio). Final concentrations in the assay were—3 nM PD1, 10 nM PD-L1, 1 nM europium anti-human IgG and 20 nM anti-His-Allophycocyanin. IC50 determination was performed by fitting the curve of percent control activity versus the log of the inhibitor concentration using the GraphPad Prism 5.0 software.
Data obtained for the Example compounds using the PD-1/PD-L1 homogenous time-resolved fluorescence (HTRF) binding assay described in Example A is provided in Table 2.

T1 sequence (Q9NZQ7 19-238): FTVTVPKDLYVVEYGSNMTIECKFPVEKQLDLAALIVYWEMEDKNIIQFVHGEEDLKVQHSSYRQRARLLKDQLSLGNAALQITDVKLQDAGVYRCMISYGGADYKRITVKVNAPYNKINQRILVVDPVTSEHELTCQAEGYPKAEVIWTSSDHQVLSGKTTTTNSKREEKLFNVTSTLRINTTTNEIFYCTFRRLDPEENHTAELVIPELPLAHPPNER

Row | Structure (SMILES) | IC50
1 | O=C(O)CN1CCc2nc(C(=O)N3CCc4c(-c5cccc(CCN6CCOCC6)c5)cccc43)sc2C1 [Example 19, 2-(2-(4-(3-(2-morpholinoethyl)phenyl)indoline-1-carbonyl)-6,7-dihydrothiazolo[5,4-c]pyridin-5(4H)-yl)acetic acid] | ≤ 25 nM
2 | Cc1c(OCCCN2CCOCC2)cccc1-c1cccc2c1CCN2C(=O)c1nc2c(n1C)CN(CC(=O)O)CC2 [Example 21, 2-(3-methyl-2-(4-(2-methyl-3-(3-morpholinopropoxy)phenyl)indoline-1-carbonyl)-3,4,6,7-tetrahydro-5H-imidazo[4,5-c]pyridin-5-yl)acetic acid] | ≤ 25 nM
3 | O=C(O)CN1CCc2nc(C(=O)N3CCc4c(-c5ccccc5)cccc43)sc2C1 [Example 4, 2-(2-(4-phenylindoline-1-carbonyl)-6,7-dihydrothiazolo[5,4-c]pyridin-5(4H)-yl)acetic acid] | ≤ 25 nM
4 | O=C(O)CN1CCc2nc(C(=O)N3CCc4c(-c5cccc6c5CCN6CCN5CCC(O)C5)cccc43)sc2C1 (centres unmarked) [Example 12, 2-(2-(1′-(2-(3-hydroxypyrrolidin-1-yl)ethyl)-[4,4′-biindoline]-1-carbonyl)-6,7-dihydrothiazolo[5,4-c]pyridin-5(4H)-yl)acetic acid] | ≤ 25 nM
5 | Cc1c(NC(=O)c2nccs2)cccc1-c1cccc2c1CCN2C(=O)c1nc2c(s1)CN(CC(=O)O)CC2 [Example 26, 2-(2-(4-(2-methyl-3-(thiazole-2-carboxamido)phenyl)indoline-1-carbonyl)-6,7-dihydrothiazolo[5,4-c]pyridin-5(4H)-yl)acetic acid] | ≤ 25 nM
6 | O=C(O)CN1CCc2nc(C(=O)N3CCc4c(-c5cccc(OCCN6CCC(O)C6)c5)cccc43)sc2C1 (centres unmarked) [Example 8, 2-(2-(4-(3-(2-(3-hydroxypyrrolidin-1-yl)ethoxy)phenyl)indoline-1-carbonyl)-6,7-dihydrothiazolo[5,4-c]pyridin-5(4H)-yl)acetic acid] | ≤ 25 nM
7 | O=C(O)CN1CCc2nc(C(=O)N3CCc4c(-c5cccc(OCCCN6CCC(O)C6)c5)cccc43)sc2C1 (centres unmarked) [Example 10, 2-(2-(4-(3-(3-(3-hydroxypyrrolidin-1-yl)propoxy)phenyl)indoline-1-carbonyl)-6,7-dihydrothiazolo[5,4-c]pyridin-5(4H)-yl)acetic acid] | ≤ 25 nM
8 | O=C(O)CN1CCc2nc(C(=O)N3CCc4c(-c5cccc6c5CCN6CCCN5CCC(O)C5)cccc43)sc2C1 (centres unmarked) [Example 11, 2-(2-(1′-(3-(3-hydroxypyrrolidin-1-yl)propyl)-[4,4′-biindoline]-1-carbonyl)-6,7-dihydrothiazolo[5,4-c]pyridin-5(4H)-yl)acetic acid] | ≤ 25 nM
9 | O=C(O)CN1CCc2nc(C(=O)N3CCc4c(-c5cccc(OCCCN6CCOCC6)c5)cccc43)sc2C1 [Example 15, 2-(2-(4-(3-(3-morpholinopropoxy)phenyl)indoline-1-carbonyl)-6,7-dihydrothiazolo[5,4-c]pyridin-5(4H)-yl)acetic acid] | ≤ 25 nM
10 | O=C(O)CN1CCc2nc(C(=O)N3CCc4c(-c5cccc6c5CCN6C(=O)c5ccccn5)cccc43)sc2C1 [Example 25, 2-(2-(1′-picolinoyl-[4,4′-biindoline]-1-carbonyl)-6,7-dihydrothiazolo[5,4-c]pyridin-5(4H)-yl)acetic acid] | 25 to 100 nM
11 | O=C(O)CN1CCc2nc(C(=O)N3CCc4c(-c5cccc(/C=C/CN6CCOCC6)c5)cccc43)sc2C1 [Example 18, (E)-2-(2-(4-(3-(3-morpholinoprop-1-en-1-yl)phenyl)indoline-1-carbonyl)-6,7-dihydrothiazolo[5,4-c]pyridin-5(4H)-yl)acetic acid] | ≤ 25 nM

The remaining lines, values ahead:

Row | IC50 | Structure (SMILES)
12 | ≤ 25 nM | Cc1c(OCCCN2CCC(O)C2)cccc1-c1cccc2c1CCN2C(=O)c1nnc(CN)s1 (centres unmarked) [Example 43, (5-(aminomethyl)-1,3,4-thiadiazol-2-yl)(4-(3-(3-(3-hydroxypyrrolidin-1-yl)propoxy)-2-methylphenyl)indolin-1-yl)methanone]
13 | 25 to 100 nM | Cn1c(C(=O)N2CCc3c(-c4cccc5c4CCN5CCCN4CCC(O)C4)cccc32)nc2c1CCNC2 (centres unmarked) [Example 40, (1′-(3-(3-hydroxypyrrolidin-1-yl)propyl)-[4,4′-biindolin]-1-yl)(1-methyl-4,5,6,7-tetrahydro-1H-imidazo[4,5-c]pyridin-2-yl)methanone]
14 | 25 to 100 nM | Cc1c(Nc2nccc3nccnc23)cccc1-c1cccc2c1CCN2C(=O)c1nc2c(s1)CN(CC(=O)O)CC2 [Example 29, 2-(2-(4-(2-methyl-3-(pyrido[3,4-b]pyrazin-5-ylamino)phenyl)indoline-1-carbonyl)-6,7-dihydrothiazolo[5,4-c]pyridin-5(4H)-yl)acetic acid]
15 | ≤ 25 nM | Cc1c(NC(=O)c2nc3c(n2C)CCNC3)cccc1-c1cccc2c1CCN2C(=O)c1nc2c(s1)CN(CC(=O)O)CC2 [Example 32, 2-(2-(4-(2-methyl-3-(1-methyl-4,5,6,7-tetrahydro-1H-imidazo[4,5-c]pyridine-2-carboxamido)phenyl)indoline-1-carbonyl)-6,7-dihydrothiazolo[5,4-c]pyridin-5(4H)-yl)acetic acid]
16 | ≤ 25 nM | Cn1c(C(=O)N2CCCc3c(-c4cccc(OCCN5CCOCC5)c4)cccc32)nc2c1CCN(CC(=O)O)C2 [Example 52, 2-(1-methyl-2-(5-(3-(2-morpholinoethoxy)phenyl)-1,2,3,4-tetrahydroquinoline-1-carbonyl)-1,4,6,7-tetrahydro-5H-imidazo[4,5-c]pyridin-5-yl)acetic acid]
17 | ≤ 25 nM | Cc1c(NC(=O)CCN2CCC(O)C2)cccc1-c1cccc2c1CCN2C(=O)c1nc2c(n1C)CN(CC(=O)O)CC2 (centres unmarked) [Example 33, 2-(2-(4-(3-(3-(3-hydroxypyrrolidin-1-yl)propanamido)-2-methylphenyl)indoline-1-carbonyl)-3-methyl-3,4,6,7-tetrahydro-5H-imidazo[4,5-c]pyridin-5-yl)acetic acid]
18 | 25 to 100 nM | O=C(c1cn2c(n1)CNCC2)N1CCc2c(-c3cccc4c3cnn4CCCN3CCOCC3)cccc21 [Example 47, (4-(1-(3-morpholinopropyl)-1H-indazol-4-yl)indolin-1-yl)(5,6,7,8-tetrahydroimidazo[1,2-a]pyrazin-2-yl)methanone]
19 | ≤ 25 nM | Cc1c(OCCCN2CCC(O)C2)cccc1-c1cccc2c1CCN2C(=O)c1nc2c(n1C)CNCC2 (centres unmarked) [Example 39, (4-(3-(3-(3-hydroxypyrrolidin-1-yl)propoxy)-2-methylphenyl)indolin-1-yl)(3-methyl-4,5,6,7-tetrahydro-3H-imidazo[4,5-c]pyridin-2-yl)methanone]
20 | 25 to 100 nM | O=C(c1nc2c(o1)CN(CCO)CC2)N1CCCc2c(-c3cccc(OCCN4CCOCC4)c3)cccc21 [Example 53, (5-(2-hydroxyethyl)-4,5,6,7-tetrahydrooxazolo[5,4-c]pyridin-2-yl)(5-(3-(2-morpholinoethoxy)phenyl)-3,4-dihydroquinolin-1(2H)-yl)methanone]
21 | ≤ 25 nM | O=C(CCN1CCC(O)C1)N1CCc2c(-c3cccc4c3CCN4C(=O)c3cn4c(n3)CNCC4)cccc21 (centres unmarked) [Example 42, 3-(3-hydroxypyrrolidin-1-yl)-1-(1′-(5,6,7,8-tetrahydroimidazo[1,2-a]pyrazine-2-carbonyl)-[4,4′-biindolin]-1-yl)propan-1-one]
22 | ≤ 25 nM | O=C(c1nc2c(s1)CN(CCO)CC2)N1CCc2c(-c3ccc4c(c3)OCCO4)cccc21 [Example 56, (4-(2,3-dihydrobenzo[b][1,4]dioxin-6-yl)indolin-1-yl)(5-(2-hydroxyethyl)-4,5,6,7-tetrahydrothiazolo[5,4-c]pyridin-2-yl)methanone]
23 | ≤ 25 nM | CN1CCc2nc(C(=O)N3CCc4c(-c5ccc6c(c5)OCCO6)cccc43)sc2C1 [Example 57, (4-(2,3-dihydrobenzo[b][1,4]dioxin-6-yl)indolin-1-yl)(5-methyl-4,5,6,7-tetrahydrothiazolo[5,4-c]pyridin-2-yl)methanone]
24 | ≤ 25 nM | Cc1c(NC(=O)c2nc3c(n2C)CNCC3)cccc1-c1cccc2c1CCN2C(=O)c1nc2c(s1)CN(CC(=O)O)CC2 [Example 31, 2-(2-(4-(2-methyl-3-(3-methyl-4,5,6,7-tetrahydro-3H-imidazo[4,5-c]pyridine-2-carboxamido)phenyl)indoline-1-carbonyl)-6,7-dihydrothiazolo[5,4-c]pyridin-5(4H)-yl)acetic acid]
25 | ≤ 25 nM | Cc1c(OCCCN2CCC(O)C2)cccc1-c1cccc2c1CCN2C(=O)c1nc2c(n1C)CCNC2 (centres unmarked) [Example 38, (4-(3-(3-(3-hydroxypyrrolidin-1-yl)propoxy)-2-methylphenyl)indolin-1-yl)(1-methyl-4,5,6,7-tetrahydro-1H-imidazo[4,5-c]pyridin-2-yl)methanone]
26 | ≤ 25 nM | Cc1c(OCCCN2CCC(O)C2)cccc1-c1cccc2c1CCN2C(=O)c1nc2c(n1C)CCN(CC(=O)O)C2 (centres unmarked) [Example 37, 2-(2-(4-(3-(3-(3-hydroxypyrrolidin-1-yl)propoxy)-2-methylphenyl)indoline-1-carbonyl)-1-methyl-1,4,6,7-tetrahydro-5H-imidazo[4,5-c]pyridin-5-yl)acetic acid]
